Test results taken from article PMC12116762, “Topobexin targets the Topoisomerase II ATPase domain for beta isoform-selective inhibition and anthracycline cardioprotection” (Nature Communications, 2025).

Tests used:
recombinant human TOP2B = biological target: T1, recombinant human TOP2B (Homo sapiens, UniProt Q02880); test: In vitro ATPase activity of TOP2B (coupled assay); type: biochemical
T1 construct: Using recombinant full-length human TOP2A and TOP2B enzymes; YFP (N, cleaved yes); made in house; host or cells: HEK293F
Experimental: (§1) Topoisomerase proteins were diluted to 500 nM in storage buffer containing 20 mM HEPES pH 7.5, 500 mM NaCl, 0.5 mM TCEP, 25% glycerol, and 0.2 mg/mL BSA prior to use. A coupled assay was used to measure TOP2-catalyzed ATP hydrolysis in vitro[37] in Costar 96-well plates (Corning Incorporated). […] Reaction plates were pre-warmed to 30 °C for 5 min and ATP was added last to initiate the reaction. The reaction plate was placed in a CLARIOstarPlus plate reader (BMG Labtech) to measure NADH fluorescence at 30 °C every 30 s over 120 cycles using a 340-60 excitation filter and a 480-100 emission filter. Background fluorescence signals calculated from wells containing no ATP were subtracted from each measurement. The slope of NADH fluorescence decay in each well was calculated using the MARS software (BMG Labtech) and reaction wells that lacked topoisomerase inhibitor to account for photobleaching of NADH fluorescence served as background subtraction. Each presented data point was obtained from distinct sample. Values were normalized to untreated controls and plotted as a function of inhibitor concentration to determine IC50 values using Prism 9 (GraphPad).

[1] = test system: neonatal rat ventricular cardiomyocytes (NVCM); test: Inherent toxicity (LDH release) in NVCM; type: cell-based; parameters: key to LDH release (inherent toxicity), mean of independent replicates: % of total LDH activity; details: NVCM; for LTC = lowest toxic concentration: compound alone, n=4
Experimental: (§2) The protective effects of the BNS-22 and newly prepared compounds were evaluated using primary cultures of neonatal rat cardiomyocytes isolated in house as previously described. Hearts isolated from 1- to 3-day-old Wistar rats were minced in buffer (1.2 mM MgSO4 · 7H2O, 116 mM NaCl, 5.3 mM KCl, 1.13 mM NaH2PO4 · H2O, 20 mM 4-(2-hydroxyethyl)-1-piperazine ethanesulfonic acid (HEPES), glucose 1 mg/mL) on ice, then serially digested (20 min, six repetitions) at 37 °C with collagenase type II (60 U/mL, Gibco). After 2 h pre-plating in a 150 mm Petri dish per approximately 20 hearts to minimize non-myocyte contamination, cells were plated in 24-well gelatin-coated plates at a density of 400,000 cells per well. Cells were cultured at 37 °C and 5% CO2 in Dulbecco’s modified Eagle medium (DMEM)/ F12 culture medium supplemented with 10% horse serum, 5% fetal bovine serum (FBS), 20 mM sodium pyruvate, 50 U/mL penicillin, and 50 μg/mL streptomycin. Freshly isolated cells were left for 40 h to attach and form a culture of spontaneously beating cardiomyocytes, then the medium was changed to DMEM/F12 medium supplemented with 5% fetal bovine serum, 20 mM sodium pyruvate, 50 U/mL penicillin, and 50 μg/mL streptomycin. For the experiments, the medium was changed to serum- and pyruvate-free DMEM/F12 with 50 U/mL penicillin and 50 μg/mL streptomycin. Cardiomyocytes were pretreated with BNS-22 or new compounds for 3 h and then coincubated with DAU (1.2 µM) for another 3 h. After the DAU treatment period, the culture medium was exchanged for the drug-free DMEM/F12 with 50 U/mL penicillin and 50 μg/mL streptomycin for the 48 h follow-up. Experiments to determine the inherent toxicity of each compound studied follow the same schedule, only no DAU was added. Subsequently, the culture medium sample was taken from each well for evaluation of lactate dehydrogenase (LDH) activity. The total LDH activity of each sample for normalization was measured after 1 h of incubation at 37 °C in lysis buffer (0.1 M potassium phosphate, 1% Triton X-100, 1 mM dithiothreitol (DTT), 2 mM EDTA, pH 7.8, 15 min in RT). All samples were immediately analyzed in Tris HCl buffer (pH 8.9) containing 35 mM lactic acid and 5 mM NAD^+. The rate of NAD^+ reduction was monitored spectrophotometrically at 340 nm for 2 min. The slope of the linear region was calculated, and the results were expressed as a percentage of the total LDH. Each presented data point was obtained from distinct sample.

[2] = test system: neonatal rat ventricular cardiomyocytes (NVCM); test: Protection against DAU-induced cytotoxicity (LDH release) in NVCM; type: cell-based; parameters: key to Suppl.Fig.3 DAU-induced cytotoxicity (LDH release) in NVCM, mean of independent replicates / LDH release (DAU-induced cytotoxicity), mean of independent replicates: % of total LDH activity; details: for minimal effective concentration: Rattus norvegicus, Cardiomyocyte, protection against DAU 1.2 µM, n=4, read-out: LEC = lowest effective concentration; for minimal effective concentration / LDH release (protection against DAU), mean of independent replicates: NVCM; for LDH release (protection against DAU), mean of independent replicates: Suppl.Fig.6b
Experimental: as §2

recombinant human TOP2A = biological target: T2, recombinant human TOP2A (Homo sapiens, UniProt P11388); test: In vitro ATPase activity of TOP2A (coupled assay); type: biochemical; details: n=3
T2 construct: Using recombinant full-length human TOP2A and TOP2B enzymes; YFP (N, cleaved yes); made in house; host or cells: HEK293F
Experimental: as §1

[3] = compound alone 0.1 µM, Suppl.Fig.4
[4] = compound alone 1 µM, Suppl.Fig.4
[5] = compound alone 3 µM, Suppl.Fig.4
[6] = compound alone 10 µM, Suppl.Fig.4
[7] = compound alone 30 µM, Suppl.Fig.4
[8] = compound alone 100 µM, Suppl.Fig.4
[9] = compound alone 0.01 µM, Suppl.Fig.6c
[10] = compound alone 0.1 µM, Suppl.Fig.6c
[11] = compound alone 1 µM, Suppl.Fig.6c
[12] = compound alone 10 µM, Suppl.Fig.6c
[13] = compound alone 30 µM, Suppl.Fig.6c
[14] = compound alone 100 µM, Suppl.Fig.6c
[15] = compound alone 0.01 µM, Suppl.Fig.4

T1 sequence (Q02880 1-1621 isoform Q02880-2): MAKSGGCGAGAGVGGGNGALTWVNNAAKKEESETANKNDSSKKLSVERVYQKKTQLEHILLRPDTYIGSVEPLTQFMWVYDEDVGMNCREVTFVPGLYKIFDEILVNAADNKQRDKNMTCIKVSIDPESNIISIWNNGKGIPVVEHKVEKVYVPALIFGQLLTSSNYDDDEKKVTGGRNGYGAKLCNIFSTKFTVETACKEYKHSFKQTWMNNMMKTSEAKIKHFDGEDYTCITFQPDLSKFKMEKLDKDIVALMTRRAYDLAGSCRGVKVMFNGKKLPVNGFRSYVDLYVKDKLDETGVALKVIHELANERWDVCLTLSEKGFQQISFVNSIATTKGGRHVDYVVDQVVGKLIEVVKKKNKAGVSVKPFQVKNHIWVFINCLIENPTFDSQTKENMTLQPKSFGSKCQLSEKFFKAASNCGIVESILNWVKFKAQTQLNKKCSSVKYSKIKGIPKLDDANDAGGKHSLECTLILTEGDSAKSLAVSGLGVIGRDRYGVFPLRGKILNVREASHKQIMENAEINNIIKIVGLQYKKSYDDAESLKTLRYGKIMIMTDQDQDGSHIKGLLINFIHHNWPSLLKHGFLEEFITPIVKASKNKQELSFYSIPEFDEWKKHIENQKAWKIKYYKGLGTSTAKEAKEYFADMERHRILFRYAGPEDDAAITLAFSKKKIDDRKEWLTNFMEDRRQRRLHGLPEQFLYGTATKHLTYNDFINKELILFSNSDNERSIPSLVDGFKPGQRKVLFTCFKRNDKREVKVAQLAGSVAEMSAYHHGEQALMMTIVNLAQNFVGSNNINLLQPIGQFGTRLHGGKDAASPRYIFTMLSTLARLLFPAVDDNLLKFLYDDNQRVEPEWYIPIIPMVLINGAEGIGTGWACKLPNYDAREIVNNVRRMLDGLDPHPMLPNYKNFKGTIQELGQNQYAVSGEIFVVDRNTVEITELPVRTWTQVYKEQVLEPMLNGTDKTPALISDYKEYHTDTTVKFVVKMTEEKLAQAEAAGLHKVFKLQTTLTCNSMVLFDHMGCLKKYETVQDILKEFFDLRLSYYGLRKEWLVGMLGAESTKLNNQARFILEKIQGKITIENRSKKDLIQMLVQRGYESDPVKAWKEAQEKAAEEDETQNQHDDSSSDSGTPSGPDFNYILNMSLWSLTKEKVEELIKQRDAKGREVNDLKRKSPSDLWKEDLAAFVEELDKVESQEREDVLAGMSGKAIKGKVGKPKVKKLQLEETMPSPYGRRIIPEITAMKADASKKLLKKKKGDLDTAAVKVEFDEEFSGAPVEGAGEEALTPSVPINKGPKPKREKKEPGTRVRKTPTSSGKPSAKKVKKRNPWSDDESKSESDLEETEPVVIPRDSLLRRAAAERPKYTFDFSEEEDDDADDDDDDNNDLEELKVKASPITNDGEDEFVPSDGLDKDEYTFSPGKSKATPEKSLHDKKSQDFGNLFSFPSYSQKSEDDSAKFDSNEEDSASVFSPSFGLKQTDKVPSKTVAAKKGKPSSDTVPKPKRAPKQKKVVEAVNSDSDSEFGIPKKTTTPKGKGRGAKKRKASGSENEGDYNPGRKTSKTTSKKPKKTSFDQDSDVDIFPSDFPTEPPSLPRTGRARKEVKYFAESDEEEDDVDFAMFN
T2 sequence (P11388 whole entry): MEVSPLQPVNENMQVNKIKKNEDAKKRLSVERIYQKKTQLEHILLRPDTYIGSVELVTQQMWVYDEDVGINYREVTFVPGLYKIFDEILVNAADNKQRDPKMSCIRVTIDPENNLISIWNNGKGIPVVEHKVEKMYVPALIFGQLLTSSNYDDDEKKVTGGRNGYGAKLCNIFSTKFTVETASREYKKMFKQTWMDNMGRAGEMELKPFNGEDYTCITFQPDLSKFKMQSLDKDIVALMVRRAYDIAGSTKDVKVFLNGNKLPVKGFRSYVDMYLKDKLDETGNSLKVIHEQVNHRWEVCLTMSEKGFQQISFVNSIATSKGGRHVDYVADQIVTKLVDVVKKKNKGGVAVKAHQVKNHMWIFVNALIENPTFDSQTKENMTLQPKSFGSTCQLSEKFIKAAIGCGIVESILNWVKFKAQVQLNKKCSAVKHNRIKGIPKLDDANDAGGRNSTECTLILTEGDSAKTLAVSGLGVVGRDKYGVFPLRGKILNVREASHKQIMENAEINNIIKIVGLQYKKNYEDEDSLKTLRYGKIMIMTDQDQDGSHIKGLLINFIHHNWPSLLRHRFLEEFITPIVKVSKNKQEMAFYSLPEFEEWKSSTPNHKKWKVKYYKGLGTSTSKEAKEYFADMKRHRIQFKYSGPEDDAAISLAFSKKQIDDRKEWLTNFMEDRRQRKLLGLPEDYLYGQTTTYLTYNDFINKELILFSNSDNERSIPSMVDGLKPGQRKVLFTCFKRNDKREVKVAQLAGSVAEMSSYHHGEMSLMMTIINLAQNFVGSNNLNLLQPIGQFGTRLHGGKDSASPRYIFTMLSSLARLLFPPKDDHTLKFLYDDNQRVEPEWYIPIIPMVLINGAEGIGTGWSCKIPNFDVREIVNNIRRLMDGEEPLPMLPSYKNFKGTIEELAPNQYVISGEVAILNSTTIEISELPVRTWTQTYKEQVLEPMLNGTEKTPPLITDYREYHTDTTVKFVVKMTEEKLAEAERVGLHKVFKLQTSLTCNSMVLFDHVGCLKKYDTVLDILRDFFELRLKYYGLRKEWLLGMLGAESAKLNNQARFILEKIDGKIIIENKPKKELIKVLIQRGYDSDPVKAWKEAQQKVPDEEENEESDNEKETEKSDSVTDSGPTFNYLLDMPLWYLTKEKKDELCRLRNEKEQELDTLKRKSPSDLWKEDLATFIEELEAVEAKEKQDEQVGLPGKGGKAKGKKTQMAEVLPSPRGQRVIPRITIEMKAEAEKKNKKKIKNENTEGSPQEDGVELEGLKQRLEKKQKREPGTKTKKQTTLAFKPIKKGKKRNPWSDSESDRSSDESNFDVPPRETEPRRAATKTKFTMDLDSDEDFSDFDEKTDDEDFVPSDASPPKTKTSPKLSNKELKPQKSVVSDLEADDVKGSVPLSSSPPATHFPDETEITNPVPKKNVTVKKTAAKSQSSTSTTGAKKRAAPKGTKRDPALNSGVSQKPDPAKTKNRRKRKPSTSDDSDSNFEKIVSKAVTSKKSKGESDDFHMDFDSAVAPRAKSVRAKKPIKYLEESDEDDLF

SMILES | LTC = lowest toxic concentration [1] | LDH release (inherent toxicity), mean of independent replicates [1, 3] | LDH release (inherent toxicity), mean of independent replicates [1, 4] | LDH release (inherent toxicity), mean of independent replicates [1, 6] | minimal effective concentration [2] | Suppl.Fig.3 DAU-induced cytotoxicity (LDH release) in NVCM, mean of independent replicates ([2]; compound 0.1 µM + DAU 1.2 µM) | Suppl.Fig.3 DAU-induced cytotoxicity (LDH release) in NVCM, mean of independent replicates ([2]; compound 1 µM + DAU 1.2 µM) | Suppl.Fig.3 DAU-induced cytotoxicity (LDH release) in NVCM, mean of independent replicates ([2]; compound 10 µM + DAU 1.2 µM) | LDH release (inherent toxicity), mean of independent replicates [1, 7] | LDH release (inherent toxicity), mean of independent replicates [1, 8] | Suppl.Fig.3 DAU-induced cytotoxicity (LDH release) in NVCM, mean of independent replicates ([2]; compound 30 µM + DAU 1.2 µM) | Suppl.Fig.3 DAU-induced cytotoxicity (LDH release) in NVCM, mean of independent replicates ([2]; compound 100 µM + DAU 1.2 µM) | also measured
CCCc1cc(=O)oc2c(C(=O)N3CCCc4ccccc43)c(OC)ccc12 [3c] | > 10 µM | 16.0204 | 16.3627 | 16.4282 | 1 µM | 33.8238 | 29.3632 | 23.4291 |  |  |  |  | SRbeta (SRTOP2B), TOP2 ATPase activity (recombinant human TOP2B; TOP2A IC50 divided by TOP2B IC50): 1.6; IC50 (recombinant human TOP2B; n=3): 0.78 µM; LDH release (inherent toxicity), mean of independent replicates [1, 5]: 15.3033; Suppl.Fig.3 DAU-induced cytotoxicity (LDH release) in NVCM, mean of independent replicates ([2]; compound 3 µM + DAU 1.2 µM): 26.6827; IC50 (recombinant human TOP2A): 1.27 µM
Cc1cc(=O)oc2c(C(=O)N3CCCc4ccccc43)c(O)ccc12 [2a] |  |  |  | 13.7502 |  |  |  | 37.2223 | 15.9605 | 17.1189 | 39.137 | 42.8636 | 
CCCc1cc(=O)oc2c(C(=O)N3CCCc4ccccc43)c(OCCCN3CCCCC3)ccc12 [compound 8] | 30 µM |  |  |  | 1 µM |  |  |  |  |  |  |  | LDH release (inherent toxicity), mean of independent replicates [1, 9]: 14.7015; LDH release (inherent toxicity), mean of independent replicates [1, 10]: 13.9677; LDH release (inherent toxicity), mean of independent replicates [1, 11]: 14.1413; LDH release (inherent toxicity), mean of independent replicates [1, 12]: 16.8035; LDH release (inherent toxicity), mean of independent replicates [1, 13]: 21.145; LDH release (inherent toxicity), mean of independent replicates [1, 14]: 29.4802; LDH release (protection against DAU), mean of independent replicates ([2]; compound 0.01 µM + DAU 1.2 µM): 40.886; LDH release (protection against DAU), mean of independent replicates ([2]; compound 0.1 µM + DAU 1.2 µM): 39.8568; LDH release (protection against DAU), mean of independent replicates ([2]; compound 1 µM + DAU 1.2 µM): 34.126; LDH release (protection against DAU), mean of independent replicates ([2]; compound 10 µM + DAU 1.2 µM): 30.5731; LDH release (protection against DAU), mean of independent replicates ([2]; compound 30 µM + DAU 1.2 µM): 32.7612; LDH release (protection against DAU), mean of independent replicates ([2]; compound 100 µM + DAU 1.2 µM): 39.9555
COc1ccc2c(C)cc(=O)oc2c1C(=O)N1CCCc2ccccc21 [3a] | > 10 µM |  | 18.1168 | 15.937 |  |  | 38.7802 | 36.7927 |  |  |  |  | LDH release (inherent toxicity), mean of independent replicates [1, 5]: 15.6047; Suppl.Fig.3 DAU-induced cytotoxicity (LDH release) in NVCM, mean of independent replicates ([2]; compound 3 µM + DAU 1.2 µM): 37.7536
CCCCc1cc(=O)oc2c(C(=O)N3CCCc4ccccc43)c(OCCO)ccc12 [5d] |  | 15.5556 | 15.5462 | 19.8205 |  | 41.2776 | 35.4099 | 33.3492 | 25.0146 | 27.0966 | 35.9089 | 42.7736 | LDH release (inherent toxicity), mean of independent replicates [1, 15]: 16.4804; Suppl.Fig.3 DAU-induced cytotoxicity (LDH release) in NVCM, mean of independent replicates ([2]; compound 0.01 µM + DAU 1.2 µM): 44.6742
CCCCc1cc(=O)oc2c(C(=O)N3CCCc4ccccc43)c(OC)cc(OC)c12 [1d] | 30 µM | 14.3468 | 13.6854 | 20.4098 | 1 µM | 44.1431 | 30.0603 | 34.1459 | 50.8474 | 76.157 | 74.3781 | 88.2455 | 
CCCc1cc(=O)oc2c(C(=O)N3CCCc4ccccc43)c(OCCN(C)C)ccc12 [compound 7] |  |  |  |  | 10 µM |  |  |  |  |  |  |  | LDH release (inherent toxicity), mean of independent replicates [1, 9]: 12.5189; LDH release (inherent toxicity), mean of independent replicates [1, 10]: 12.4578; LDH release (inherent toxicity), mean of independent replicates [1, 11]: 12.8607; LDH release (inherent toxicity), mean of independent replicates [1, 12]: 14.2154; LDH release (inherent toxicity), mean of independent replicates [1, 13]: 18.2491; LDH release (inherent toxicity), mean of independent replicates [1, 14]: 27.6932; LDH release (protection against DAU), mean of independent replicates ([2]; compound 0.01 µM + DAU 1.2 µM): 44.2016; LDH release (protection against DAU), mean of independent replicates ([2]; compound 0.1 µM + DAU 1.2 µM): 45.7696; LDH release (protection against DAU), mean of independent replicates ([2]; compound 1 µM + DAU 1.2 µM): 39.8955; LDH release (protection against DAU), mean of independent replicates ([2]; compound 10 µM + DAU 1.2 µM): 31.2866; LDH release (protection against DAU), mean of independent replicates ([2]; compound 30 µM + DAU 1.2 µM): 33.8072; LDH release (protection against DAU), mean of independent replicates ([2]; compound 100 µM + DAU 1.2 µM): 37.6314
CCCCc1cc(=O)oc2c(C(=O)N3CCCc4ccccc43)c(OC)ccc12 [3d] | > 30 µM | 14.1948 | 16.3261 | 19.5649 | 1 µM | 40.2805 | 35.9225 | 25.0218 | 19.0356 |  | 30.6397 |  | LDH release (inherent toxicity), mean of independent replicates [1, 15]: 14.5175; Suppl.Fig.3 DAU-induced cytotoxicity (LDH release) in NVCM, mean of independent replicates ([2]; compound 0.01 µM + DAU 1.2 µM): 50.7769
